This passage reports IC50 results from US9403798B2, “Triazinone compound and T-type calcium channel inhibitor” (NISSAN CHEMICAL INDUSTRIES, LTD., priority 2012, dated 2016).

T1 sequence (O95180 whole entry): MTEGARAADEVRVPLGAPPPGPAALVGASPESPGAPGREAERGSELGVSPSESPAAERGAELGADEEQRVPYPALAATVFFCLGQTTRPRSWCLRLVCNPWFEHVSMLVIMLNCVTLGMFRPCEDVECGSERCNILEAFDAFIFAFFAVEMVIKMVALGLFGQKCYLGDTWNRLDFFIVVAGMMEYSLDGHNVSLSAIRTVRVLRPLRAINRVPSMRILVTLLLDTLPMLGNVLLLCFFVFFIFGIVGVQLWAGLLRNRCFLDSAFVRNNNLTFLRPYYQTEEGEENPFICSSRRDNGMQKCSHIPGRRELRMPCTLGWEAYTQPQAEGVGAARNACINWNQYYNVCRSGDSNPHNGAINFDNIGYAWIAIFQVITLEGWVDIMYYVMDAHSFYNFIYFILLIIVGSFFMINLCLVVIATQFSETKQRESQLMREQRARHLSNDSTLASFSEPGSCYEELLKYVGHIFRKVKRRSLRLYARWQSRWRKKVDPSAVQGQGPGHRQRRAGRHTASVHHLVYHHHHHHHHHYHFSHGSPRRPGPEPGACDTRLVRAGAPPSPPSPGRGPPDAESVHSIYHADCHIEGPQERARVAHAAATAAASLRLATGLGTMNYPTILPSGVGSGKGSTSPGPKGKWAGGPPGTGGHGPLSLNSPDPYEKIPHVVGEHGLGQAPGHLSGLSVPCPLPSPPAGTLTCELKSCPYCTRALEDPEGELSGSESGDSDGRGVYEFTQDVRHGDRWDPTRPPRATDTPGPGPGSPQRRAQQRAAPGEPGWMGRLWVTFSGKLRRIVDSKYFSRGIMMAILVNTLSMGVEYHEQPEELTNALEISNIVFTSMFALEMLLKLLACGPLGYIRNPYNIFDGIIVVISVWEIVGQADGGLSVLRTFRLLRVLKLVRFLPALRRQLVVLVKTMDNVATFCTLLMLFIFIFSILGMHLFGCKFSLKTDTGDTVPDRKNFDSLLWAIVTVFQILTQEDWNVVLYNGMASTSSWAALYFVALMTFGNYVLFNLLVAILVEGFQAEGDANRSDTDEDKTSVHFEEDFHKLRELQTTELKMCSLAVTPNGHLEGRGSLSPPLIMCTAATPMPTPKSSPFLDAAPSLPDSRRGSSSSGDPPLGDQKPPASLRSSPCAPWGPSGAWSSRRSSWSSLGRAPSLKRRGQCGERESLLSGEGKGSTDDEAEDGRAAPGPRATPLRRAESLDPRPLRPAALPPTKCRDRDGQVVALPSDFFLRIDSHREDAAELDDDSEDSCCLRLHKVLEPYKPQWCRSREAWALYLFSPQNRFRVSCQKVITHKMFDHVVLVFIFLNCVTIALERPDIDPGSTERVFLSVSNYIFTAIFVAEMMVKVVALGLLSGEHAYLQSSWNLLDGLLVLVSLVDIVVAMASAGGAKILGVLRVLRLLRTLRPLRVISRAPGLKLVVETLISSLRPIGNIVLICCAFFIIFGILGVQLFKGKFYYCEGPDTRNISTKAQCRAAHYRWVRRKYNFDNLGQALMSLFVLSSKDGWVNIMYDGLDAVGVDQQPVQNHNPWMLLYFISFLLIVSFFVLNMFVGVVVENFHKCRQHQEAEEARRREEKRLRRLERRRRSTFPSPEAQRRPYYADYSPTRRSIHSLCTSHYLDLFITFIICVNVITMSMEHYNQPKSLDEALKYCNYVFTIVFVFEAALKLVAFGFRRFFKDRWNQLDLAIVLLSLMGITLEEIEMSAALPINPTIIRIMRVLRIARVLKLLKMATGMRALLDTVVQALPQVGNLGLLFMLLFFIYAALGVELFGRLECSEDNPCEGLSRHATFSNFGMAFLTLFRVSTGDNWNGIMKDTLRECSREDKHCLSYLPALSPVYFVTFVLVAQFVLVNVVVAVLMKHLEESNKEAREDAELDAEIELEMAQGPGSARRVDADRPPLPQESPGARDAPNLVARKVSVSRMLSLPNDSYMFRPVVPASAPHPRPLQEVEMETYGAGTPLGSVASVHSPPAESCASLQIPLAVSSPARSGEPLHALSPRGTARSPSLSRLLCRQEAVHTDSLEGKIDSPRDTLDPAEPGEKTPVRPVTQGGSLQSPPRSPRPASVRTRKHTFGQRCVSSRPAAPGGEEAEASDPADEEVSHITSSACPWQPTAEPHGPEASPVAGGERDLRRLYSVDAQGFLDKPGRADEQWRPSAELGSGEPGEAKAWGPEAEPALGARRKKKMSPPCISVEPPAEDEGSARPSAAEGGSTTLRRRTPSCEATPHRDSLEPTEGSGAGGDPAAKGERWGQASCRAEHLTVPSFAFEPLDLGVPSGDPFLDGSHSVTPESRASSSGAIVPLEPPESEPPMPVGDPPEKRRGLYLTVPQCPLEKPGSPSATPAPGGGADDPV

The assay concerns the target T1, Human T-type calcium channel (Cav 3.2) (Homo sapiens, UniProt O95180).
T1 construct: Edward Perez-Reyes, University of Virginia, USA; host or cells: HEK293
Description: Calcium Influx Inhibition Assay. Type of assay: cell-based. Particulars: Human T-type calcium channel (Cav 3.2) expressing HEK293 cells, FLIPR Calcium 4 fluorescence. The protocol: 1. Calcium Influx Inhibition Assay
Human T-type calcium channel (Cav 3.2) expressing HEK293 cells were obtained from Prof. Edward Perez-Reyes, University of Virginia, USA. The calcium-sensitive fluorescent dye used was FLIPR Calcium 4 Assay Kit (Molecular Devices). To a black 96-well plate with a clear bottom coated with type I collagen, the human T-type calcium channel (Cav 3.2) expressing HEK293 cells were seeded and cultured overnight, and the culture medium was removed. A solution of the calcium-sensitive fluorescent dye was added, and the plate was incubated at 37° C. in an atmosphere of 5% carbon dioxide for 30 minutes. To the plate, a diluted solution of a compound was added, and the whole was further incubated at 37° C. in an atmosphere of 5% carbon dioxide for 30 minutes. While fluorescence was continuously analyzed from the bottom with a FlexStation 3 (Molecular Devices), a calcium solution was added. […] From the rise in the fluorescence from the base line, the inhibition percentage was calculated. The logarithms of compound concentrations were plotted with respect to the inhibition activities to give an IC50 value.
Take `O=c1nc(N[C@@H]2CCO[C@H](c3ccc(F)cc3)C2)ncn1Cc1ccc(C(F)(F)F)s1` (racemic) [compound 307]: the IC50 (in general, the concentration at which inhibition is half-maximal) was determined as 270 nM.
The figure for `O=c1nc(N2CC=C(c3ccc(F)cc3)C(F)C2)ncn1Cc1ccc(Cl)cc1` (centres unmarked) [compound 107] is 76 nM; for `O=c1nc(N2CC=C(c3ccc(F)c(F)c3)CC2)ncn1Cc1ccc(C(F)(F)F)s1` [compound 264] it is 28 nM; for `Cc1nc(N2CC=C(c3ccc(F)cc3)[C@@H](O)C2)nc(=O)n1Cc1ccc(Cl)s1` [compound 403] it is 2 nM.
The same measure for `CC(c1ccc(C(F)(F)F)s1)n1cnc(N2CC=C(c3ccc(F)cc3)C(O)C2)nc1=O` (centres unmarked) [compound 202]: 47 nM.
The figure for `O=c1nc(N2CC=C(c3ccc(F)cc3)C(O)C2)ncn1Cc1ccc(Cl)cc1` (centres unmarked) [compound 90] is 19 nM; for `COc1nc(N2CCN(c3ccc(F)cc3)CC2)nc(=O)n1Cc1ccc(OCc2ccc(Cl)cc2)cc1` [compound 66] it is 88 nM.
For the compound `CC(=O)OC1CN(c2ncn(Cc3ccc(C(F)(F)F)s3)c(=O)n2)CC=C1c1ccc(F)cc1` (centres unmarked) [compound 476], the IC50 is 61 nM.
The same measure for `O=c1nc(N2CC=C(c3ccc(F)cc3)C(O)C2)ncn1Cc1ccc(C2CCCO2)s1` (centres unmarked) [compound 196]: 20 nM; for `Cc1cc(C2=CCN(c3nc(C)n(Cc4cnc(C(F)(F)F)s4)c(=O)n3)C[C@@H]2O)cs1` [compound 493]: 3.7 nM.
The same measure for `Cc1ccc(C2=CCN(c3nc(C)n(Cc4ccc(C(F)(F)F)s4)c(=O)n3)C[C@@H]2O)cc1F` [compound 349]: 1.1 nM.
For `Cc1cccc(N2CCN(c3ncn(Cn4ccc(C(F)(F)F)n4)c(=O)n3)CC2)c1` [compound 39], the 50% inhibitory concentration (IC50) was 210 nM.
Turning to `N#Cc1cc(C2=CCN(c3ncn(Cc4ccc(C(F)(F)F)s4)c(=O)n3)CC2)ccc1F` [compound 278], the half-inhibitory concentration (IC50) stood at 45 nM.
As for `O=c1nc(N2CC=C(c3cn4c(n3)CCC4)CC2)ncn1Cc1ccc(C(F)(F)F)s1` [compound 283], the IC50 came out at 510 nM.
As to `O=c1nc(N2CC3C(C2)C3c2ccc(F)cc2)ncn1Cc1ccc(C(F)(F)F)s1` (centres unmarked) [compound 311], the half-inhibitory concentration (IC50) stood at 160 nM.
`Cc1cc(Cn2cnc(N3CCN(c4ccc(F)cc4)CC3)nc2=O)sc1Br` [compound 153]: the IC50 was 51 nM.
The figure for `Cc1nc(N2CCC3(CCN(c4ccc(F)cc4)C3)CC2)nc(=O)n1Cc1ccc(C(F)(F)F)s1` [compound 370] is 630 nM; for `Cc1nc(C2=CCN(c3ncn(Cc4ccc(C(C)(C)C)s4)c(=O)n3)C[C@@H]2O)ccc1F` [compound 415] it is 16 nM.
On to `O=c1nc(N2CC=C(c3ccccc3)CC2)ncn1Cc1ccc(C(F)(F)F)s1` [compound 70], for which the IC50 amounted to 19 nM.
The figure for `Cc1nc(N2CC=C(c3ccc(F)c(Cl)c3)[C@@H](O)C2)nc(=O)n1Cc1ccc(C(F)(F)F)s1` [compound 350] is 1.1 nM.
Take `Cc1nc(N2CC=C(c3ccc(F)cc3)CC2)nc(=O)n1Cc1ccc(C(F)(F)F)s1` [compound 340]: the 50% inhibitory concentration (IC50) is 13 nM.
The figure for `Cc1ccccc1N1CCN(c2ncn(Cn3ccc(C(F)(F)F)n3)c(=O)n2)CC1` [compound 59] is 800 nM; for `COc1nc(C2=CCN(c3nc(C)n(Cc4ccc(Br)s4)c(=O)n3)C[C@@H]2O)ccc1Cl` [compound 395] it is 1.7 nM; for `O=c1nc(N2CC=C(c3cncs3)CC2)ncn1Cc1ccc(C(F)(F)F)s1` [compound 265] it is 570 nM.
The figure for `O=c1nc(N2CCN(c3ccc(F)cc3)CC2)ncn1Cc1ccc(OC(F)(F)F)cc1` [compound 6] is 19 nM; for `O=c1nc(N2CC=C(c3ccc(F)c(O)c3)CC2)ncn1Cc1ccc(C(F)(F)F)s1` [compound 304] it is 64 nM; for `Cc1cc(C2=CCN(c3ncn(Cc4ccc(C(F)(F)F)s4)c(=O)n3)CC2)sn1` [compound 275] it is 30 nM.
As to `O=c1nc(N2CCC(c3ccc(F)cc3)CC2)ncn1Cc1ccc(Cl)cc1` [compound 114], the 50% inhibitory concentration (IC50) came to 130 nM.
The same measure for `Cc1nc(N2CCN(c3nc(C)n(Cc4ccc(C(F)(F)F)s4)c(=O)n3)CC2)ccc1F` [compound 365]: 13 nM; for `O=c1nc(N2CC=C(c3cnn(CC(F)(F)F)c3)CC2)ncn1Cc1ccc(C(F)(F)F)s1` [compound 259]: 600 nM.
The figure for `COc1ccc(C2=CCN(c3ncn(Cc4ccc(C(F)(F)F)s4)c(=O)n3)CC2)s1` [compound 300] is 160 nM.
For `O=c1nc(N2CCN(c3ccc(F)cc3)CC2)ncn1Cn1ccc(C2CCCCC2)n1` [compound 27], the half-maximal inhibitory concentration (IC50) stood at 150 nM.
The same measure for `O=c1nc(N2CC=C(c3ccsc3)CC2)ncn1Cc1ccc(C(F)(F)F)s1` [compound 230]: 22 nM; for `O=c1nc(N2CC=C(c3ccc(F)cc3)C(O)C2)ncn1Cc1ccc2c(c1)CC(C(F)(F)F)O2` (centres unmarked) [compound 195]: 3.6 nM; for `CC(C)(C)c1ccc(Cn2cnc(N3CCN(c4ccc(F)cc4)CC3)nc2=O)cc1` [compound 5]: 56 nM.
The figure for `O=c1nc(N[C@@H]2CCN(c3ccc(F)cc3)C2)ncn1Cc1ccc(Cl)cc1` [compound 92] is 47 nM.
The same measure for `Cc1cccc(C2=CCN(c3ncn(Cc4cc5c(s4)CCCC5)c(=O)n3)C[C@@H]2O)n1` [compound 430]: 160 nM; for `O=c1nc(N2CCN(c3cc(F)c(F)c(F)c3)CC2)ncn1Cn1ccc(C(F)(F)F)n1` [compound 58]: 170 nM; for `Cc1nc(Nc2nc(-c3ccc(F)c(F)c3)cs2)nc(=O)n1Cc1ccc(C(F)(F)F)s1` [compound 383]: 89 nM.
`O=c1nc(N2CC=C(c3ccc(F)cc3)CC2)ncn1Cc1ccc2c(c1)CCCO2` [compound 178]: the IC50 is 60 nM.
On to `Cc1nc(N2CC=C(c3ccc(F)cc3)C3(COCOC3)C2)nc(=O)n1Cc1ccc(C(F)(F)F)s1` [compound 486], for which the half-inhibitory concentration (IC50) is 410 nM.
The figure for `O=c1nc(N2CC=C(c3ccc(F)cc3)C(O)C2)ncn1Cc1ccc(C(F)(F)F)s1` (centres unmarked) [compound 190] is 3.3 nM.
As for `O=c1nc(NC2CCC(c3ccc(F)cc3)C2)ncn1Cc1ccc(Cl)cc1` (centres unmarked) [compound 85], the IC50 was 57 nM.
The figure for `O=c1nc(NC2CCC(O)(c3ccc(F)cc3)C2O)ncn1Cc1ccc(Cl)cc1` (centres unmarked) [compound 465] is 280 nM; for `NC1CN(c2ncn(Cc3ccc(C(F)(F)F)s3)c(=O)n2)CC=C1c1ccc(F)cc1` (centres unmarked) [compound 321] it is 3.6 nM.
The same measure for `Cc1ccc(N2CCN(c3nc(C)n(Cc4ccc(C(F)(F)F)s4)c(=O)n3)CC2)cc1` [compound 363]: 8.7 nM; for `O=c1nc(N2CC=C(c3ccc(F)c(Cl)c3)[C@@H](O)C2)ncn1Cc1ccc(Cl)s1` [compound 400]: 4.4 nM; for `O=c1nc(N2CCN(c3ccc(F)cc3)CC2)ncn1Cc1cc2cc(Cl)ccc2o1` [compound 18]: 50 nM.
The figure for `Cc1nc(N2CC=C(c3ccc(F)cc3)[C@@H](O)C2)nc(=O)n1Cc1cnc(C(F)(F)F)s1` [compound 219] is 5.5 nM.
On to `O=C1CCc2cc(C3=CCN(c4ncn(Cc5ccc(C(F)(F)F)s5)c(=O)n4)CC3)ccc21` [compound 269], for which the IC50 stood at 75 nM.
The same measure for `Cc1nc(N2CC=C(c3ccc(F)cc3)[C@@H](O)C2)nc(=O)n1Cc1ccc(C(F)(F)F)o1` [compound 439]: 6.9 nM; for `O=c1nc(N2CC=C(c3ccc(F)cc3)CC2)ncn1Cc1ccc(C2CC2)s1` [compound 479]: 66 nM.
The figure for `COc1nc(C2=CCN(c3nc(C)n(Cc4ccc(OS(=O)(=O)C(F)(F)F)nc4)c(=O)n3)C[C@@H]2O)ccc1Cl` [compound 450] is 46 nM; for `O=c1nc(N2CCN(c3ccc(F)cc3)CC2)nc(CO)n1Cc1ccc(C(F)(F)F)s1` [458b] it is 53 nM; for `Cc1cc(C2=CCN(c3ncn(Cc4ccc(C(F)(F)F)s4)c(=O)n3)C[C@@H]2O)cs1` [compound 333] it is 1.8 nM.
Turning to `O=c1nc(N[C@H]2C[C@@H](c3ccc(F)cc3)C2)ncn1Cc1ccc(C(F)(F)F)s1` [compound 318], the concentration for half-maximal inhibition (IC50) was determined as 33 nM.
The same measure for `Cc1nc(N2CCC(c3ccc(F)cc3)C(CO)(CO)C2)nc(=O)n1Cc1ccc(C(F)(F)F)s1` (centres unmarked) [compound 485]: 410 nM; for `CC(=O)OCc1nc(N2CC=C(c3ccc(F)cc3)[C@@H](O)C2)nc(=O)n1Cc1ccc(C(F)(F)F)s1` [compound 457]: 13 nM.
The figure for `O=c1nc(N2CCN(c3ccc(F)cc3)CC2)ncn1Cc1cccc(C(F)(F)F)c1` [compound 8] is 140 nM; for `O=c1nc(N2CC=C(c3ccc(F)c(Cl)c3)[C@@H](O)C2)ncn1Cc1ccc(C(F)(F)F)s1` [compound 326] it is 1.9 nM; for `CCCCOc1nc(N2CCN(c3ccc(F)cc3)CC2)nc(=O)n1Cc1ccc(Cl)cc1` [compound 65] it is 610 nM.
The figure for `CC(C)(C)OC(=O)N1C[C@@H](CNc2ncn(Cc3ccc(C(F)(F)F)s3)c(=O)n2)[C@H](c2ccc(F)cc2)C1` [compound 312] is 550 nM; for `O=c1nc(N2CC=C(c3ccc(F)cc3)C(O)C2)ncn1Cn1ccc(C(F)(F)C(F)(F)F)n1` (centres unmarked) [compound 194] it is 9.9 nM; for `O=c1nc(N2CCN(c3ccc(Cl)cc3)CC2)ncn1Cn1ccc(C(F)(F)F)n1` [compound 38] it is 75 nM.
In the case of `O=c1nc(N2CC=C(c3ccc(F)cc3)[C@@H](O)C2)ncn1Cc1ccc(OS(=O)(=O)C(F)(F)F)nc1` [compound 208], the half-inhibitory concentration (IC50) stood at 6.2 nM.
